Measurements published in patent publication US9067949B2, “Benzofuro[3,2-c] pyridines and related analogs as serotonin sub-type 6 (5-HT6) modulators for the treatment of obesity, metabolic syndrome, cognition and schizophrenia” (Albany Molecular Research, Inc., priority 2011, dated 2015).
Counter-ions that a name gives are not always drawn. Like-named read-outs stand apart in the source and are kept apart here.

Biological target: human 5-HT6 receptor (Homo sapiens (Human), UniProt P50406)
Experiment: 5-HT6 radioligand binding assay (SPA format, [N-methyl-3H]-LSD)
Settings: human 5-HT6 receptor membranes, 10 nM [N-methyl-3H]-LSD, Ki by Cheng-Prusoff, read-out: human 5HT6 Ki
Description: The relative affinities of the various compounds for the 5-HT6 receptor were measured in a radioligand binding assay, using a scintillation proximity assay (SPA) format.
For binding analysis vs. the human receptor, samples were incubated in 50 mM Tris-HCl, pH 7.5, 5 mM MgCl2, 1 mM EDTA (4% DMSO final) with 10 nM [N-methyl-^3H]-LSD (Perkin Elmer), 2.5 ng of human 5-HT6 receptor membranes (Millipore) and 50 μg SPA beads (PVT-PEI-WGA, GE Healthcare) per well in a final volume of 0.2 mL. […] Binding reactions were performed in PicoPlate96 microtiter plates (Perkin Elmer) by consecutively adding 50 μL of each competing compound or buffer, SPA beads, radioligand and 5-HT6 receptor membranes. After an overnight incubation at room temperature on a Nutator mixer, plates were centrifuged for 15 min at 1,500 rpm, followed by incubation in the dark for 10 min. […] Total binding control contained compound dilution buffer only; nonspecific binding is determined in the presence of 100 μM 5-hydroxytryptamine. Specific binding was determined by subtracting nonspecific binding from total binding.
All experiments were performed in duplicate using ten concentrations of competing ligand, with clozapine included as a control in every run. IC50 values were determined from specific binding data using XLfit4.1 curve fitting software from IDBS Ltd. The inhibition constant (Ki) was calculated using the Cheng-Prusoff equation: (Ki=IC50/(1+(L/KD)), where L=concentration of radioligand in the assay, and KD=affinity of the radioligand for the receptor.

Sequence of human 5-HT6 receptor (P50406 whole entry): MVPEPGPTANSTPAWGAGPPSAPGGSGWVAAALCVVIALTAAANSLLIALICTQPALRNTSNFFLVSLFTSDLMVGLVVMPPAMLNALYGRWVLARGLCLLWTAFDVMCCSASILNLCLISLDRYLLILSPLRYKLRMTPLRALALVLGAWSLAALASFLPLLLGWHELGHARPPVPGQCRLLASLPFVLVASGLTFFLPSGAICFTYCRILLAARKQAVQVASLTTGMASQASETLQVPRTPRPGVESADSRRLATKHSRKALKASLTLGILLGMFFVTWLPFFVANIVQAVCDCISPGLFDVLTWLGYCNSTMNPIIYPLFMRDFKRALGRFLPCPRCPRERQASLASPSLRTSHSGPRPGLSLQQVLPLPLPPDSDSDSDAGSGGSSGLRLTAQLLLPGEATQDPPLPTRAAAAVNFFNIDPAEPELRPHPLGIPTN

Row | Compound | Ki [nM] | Ki (hydrochloride) [nM]
1 | COc1cc(S(=O)(=O)c2ccsc2)cc2c3c(oc12)CCNC3 [Example 187] | 0.27 | 
2 | CC(C)(O)c1cccc(S(=O)(=O)c2cc(Cl)c3oc4c(c3c2)CNCC4)c1 [Example 107] | 0.79 | 
3 | O=S(=O)(c1ccc(OC(F)F)cc1)c1cc(Cl)c2oc3c(c2c1)CNCC3 [Example 113] | 2.2 | 
4 | CC1Cc2oc3c(Cl)cc(S(=O)(=O)c4ccccc4)cc3c2CN1 (racemic) [Example 81b, 6-chloro-3-methyl-8-(phenylsulfonyl)-1,2,3,4-tetrahydrobenzofuro[3,2-c]pyridine hydrochloride] |  | 19
5 | CC(C)(O)CN1CCc2oc3c(Cl)cc(S(=O)(=O)c4ccccc4)cc3c2C1 [Example 147] | 1.2 | 
6 | COc1cc(S(=O)(=O)c2ccccc2)cc2c3c(oc12)CCC(O)C3 (stereo not shown) [Example 238] | 0.59 | 
7 | O=S(=O)(c1cc(Cl)c2oc3c(c2c1)CNCC3)c1ccccc1Cl [Example 100] | 0.77 | 
8 | O=S(=O)(c1ccccc1)c1cc(Cl)c2oc3c(c2c1)CNC(CO)C3 (stereo not shown) [Example 86, (6-chloro-8-(phenylsulfonyl)-1,2,3,4-tetrahydrobenzofuro[3,2-c]pyridin-3-yl)methanol hydrochloride] | 522 | 
9 | O=S(=O)(c1ccc2c(c1)CCOC2)c1cc(Cl)c2oc3c(c2c1)CNCC3 [Example 106] | 2.5 | 
10 | O=S(=O)(c1ccccc1)c1cc(-c2cc[nH]n2)c2oc3c(c2c1)CNCC3 [Example 224] | 4.5 | 
11 | CC(C)(O)c1ccccc1S(=O)(=O)c1cc(Cl)c2oc3c(c2c1)CNCC3 [Example 142] | 25 | 
12 | Cc1cc(S(=O)(=O)c2cccc(F)c2)cc2c3c(oc12)CCNC3 [Example 200] | 0.5 | 
13 | O=S(=O)(c1ccccc1)c1cc(Cl)c2oc3c(c2c1)CN(CCO)CC3 [Example 146] | 1.6 | 
14 | O=S(=O)(c1ccccc1)c1cc(-c2cn[nH]c2)c2oc3c(c2c1)CNCC3 [Example 77, 8-(phenylsulfonyl)-6-(1H-pyrazol-4-yl)-1,2,3,4-tetrahydrobenzofuro[3,2-c]pyridine hydrochloride] | 28 | 
15 | COc1cc([S+]([O-])c2ccccc2)cc2c3c(oc12)CCNC3 (stereo not shown) [Example 235] | 1.1 | 
16 | COc1cc(S(=O)(=O)c2cccc(C(O)C(F)(F)F)c2)cc2c3c(oc12)CCNC3 (stereo not shown) [Example 178] | 0.32 | 
17 | Cc1cc(S(=O)(=O)c2ccc3sccc3c2)cc2c3c(oc12)CCNC3 [Example 204] | 0.23 | 
18 | CC(O)c1cc(S(=O)(=O)c2ccccc2)cc2c3c(oc12)CCNC3 (stereo not shown) [Example 221] | 5.7 | 
19 | COc1cc(S(=O)(=O)c2cc(Cl)cc(Cl)c2)cc2c3c(oc12)CCNC3 [Example 191] | 0.23 | 
20 | COc1cc(S(=O)(=O)c2ccc([C@H](C)O)cc2)cc2c3c(oc12)CCNC3 [Example 171] | 8.6 | 
21 | Cn1cc(-c2cc(S(=O)(=O)c3ccccc3)cc3c4c(oc23)CCNC4)cn1 [Example 225] | 11 | 
22 | [O-][S+](c1ccccc1)c1cc(Cl)c2oc3c(c2c1)CNCC3 (stereo not shown) [Example 231] | 3.1 | 

Row | Compound | Ki [nM] | Ki (hydrochloride) [nM]
23 | O=S(=O)(c1ccccc1)c1cc(Cl)c2oc3c(c2c1)CC(O)CC3 (racemic) [Example 97, 6-chloro-8-(phenylsulfonyl)-1,2,3,4-tetrahydrodibenzo[b,d]furan-2-ol] | 1.7 | 
24 | COc1cc(S(=O)(=O)c2ccc(OC(F)(F)F)cc2)cc2c3c(oc12)CCNC3 [Example 165] | 1.9 | 
25 | Cc1cc(S(=O)(=O)c2cc(Cl)cc(Cl)c2)cc2c3c(oc12)CCNC3 [Example 198] | 1.2 | 
26 | Cn1ncc2cc(S(=O)(=O)c3cc(Cl)c4oc5c(c4c3)CNCC5)ccc21 [Example 124] | 37 | 
27 | O=S(=O)(c1cc(Cl)c2oc3c(c2c1)CNCC3)c1ccccc1C(F)(F)F [Example 153] | 6.1 | 
28 | COc1cc(Sc2ccccc2)cc2c3c(oc12)CCNC3 [Example 230] | 1.9 | 
29 | O=S(=O)(c1cccc(C(F)(F)F)c1)c1cc(Cl)c2oc3c(c2c1)CNCC3 [Example 45, 6-Chloro-8-(3-trifluoromethylphenylsulfonyl)-1,2,3,4-tetrahydrobenzofuro[3,2-c]pyridine hydrochloride] | 0.48 | 
30 | CC(=O)N1CCc2oc3c(Cl)cc(S(=O)(=O)c4ccccc4)cc3c2C1 [Example 239] | 9.5 | 
31 | COCc1ccc(S(=O)(=O)c2cc(Cl)c3oc4c(c3c2)CNCC4)cc1 [Example 109] | 14 | 
32 | CC1Cc2oc3c(Cl)cc(S(=O)(=O)c4ccccc4)cc3c2CN1 (single isomer, unassigned; (+)) [Example 83b, (+) 6-chloro-3-methyl-8-(phenylsulfonyl)-1,2,3,4-tetrahydrobenzofuro[3,2-c]pyridine hydrochloride] |  | 16
33 | COc1cc(S(=O)(=O)c2cccc(F)c2)cc2c3c(oc12)CCNC3 [Example 166] | 0.2 | 
34 | O=S(=O)(c1ccccc1)c1cc(Cl)c2oc3c(c2c1)CN(c1cccnc1)CC3 [Example 115] | 123 | 
35 | Cc1cc(S(=O)(=O)c2ccc(Cl)cc2)cc2c3c(oc12)CCNC3 [Example 196] | 1.1 | 
36 | O=S(=O)(c1ccc(-n2cccn2)cc1)c1cc(Cl)c2oc3c(c2c1)CNCC3 [Example 104] | 26 | 
37 | COc1cc(S(=O)(=O)c2ccc(F)c(F)c2)cc2c3c(oc12)CCNC3 [Example 161] | 0.32 | 
38 | Cc1cc(S(=O)(=O)c2cccc(Cl)c2)cc2c3c(oc12)CCNC3 [Example 195] | 0.28 | 
39 | C[C@@H](O)c1ccc(S(=O)(=O)c2cc(Cl)c3oc4c(c3c2)CNCC4)cc1 [Example 141] | 3.1 | 
40 | O=S(=O)(c1ccccc1)c1cc(-n2cncn2)c2oc3c(c2c1)CNCC3 [Example 226] | 106 | 
41 | O=S(=O)(c1cccc(C(F)(F)F)c1)c1cc(F)c2oc3c(c2c1)CNCC3 [Example 206] | 5.9 | 
42 | CC(=O)N1CCc2oc3c(Cl)cc(S(=O)(=O)c4cn(C)c5ccccc45)cc3c2C1 [Example 155] | 167 | 
43 | N#Cc1cc(S(=O)(=O)c2cccc(F)c2)cc2c3c(oc12)CCNC3 [Example 73, 8-(3-fluorophenylsulfonyl)-1,2,3,4-tetrahydrobenzofuro[3,2-c]pyridine-6-carbonitrile hydrochloride] | 4.3 | 
44 | N#Cc1cc(S(=O)(=O)c2ccc(F)cc2)cc2c3c(oc12)CCNC3 [Example 209] | 18 | 

Row | Compound | Ki [nM] | Ki (hydrochloride) [nM]
45 | COc1cc([S+]([O-])c2ccccc2)cc2c3c(oc12)CCNC3 (stereo not shown) [Example 234] | 7.4 | 
46 | O=S(=O)(c1ccc(C(O)C(F)(F)F)cc1)c1cc(Cl)c2oc3c(c2c1)CNCC3 (stereo not shown) [Example 131] | 7.6 | 
47 | O=S(=O)(c1ccc(C2CCOC2)cc1)c1cc(Cl)c2oc3c(c2c1)CNCC3 (stereo not shown) [Example 154] | 5.6 | 
48 | COc1cc(S(=O)(=O)c2ccc(Cl)cc2)cc2c3c(oc12)CCNC3 [Example 189] | 0.28 | 
49 | Cc1cc(S(=O)(=O)c2cccc(OC(F)F)c2)cc2c3c(oc12)CCNC3 [Example 202] | 0.3 | 
50 | COc1cc(S(=O)(=O)c2ccc3c(c2)CCOC3)cc2c3c(oc12)CCNC3 [Example 158] | 0.48 | 
51 | O=S(=O)(c1ccccc1)c1cc(OC(F)F)c2oc3c(c2c1)CNCC3 [Example 216] | 0.33 | 
52 | Cc1cc(S(=O)(=O)c2cc(F)cc(F)c2)cc2c3c(oc12)CCNC3 [Example 197] | 1.3 | 
53 | N#Cc1cc(S(=O)(=O)c2ccccc2)cc2c3c(oc12)CCNC3 [Example 210] | 4.2 | 
54 | O=S(=O)(c1ccccc1)c1cc(-n2cccn2)c2oc3c(c2c1)CNCC3 [Example 76, 8-(phenylsulfonyl)-6-(1H-pyrazol-1-yl)-1,2,3,4-tetrahydrobenzofuro[3,2-c]pyridine hydrochloride] | 9.3 | 
55 | COc1cc(S(=O)(=O)c2cn(C)c3ccccc23)cc2c3c(oc12)CCNC3 [Example 183] | 0.16 | 
56 | Cc1cc(S(=O)(=O)c2ccc(F)c(F)c2)cc2c3c(oc12)CCNC3 [Example 199] | 2 | 
57 | O=S(=O)(c1cccc(C2CCOC2)c1)c1cc(Cl)c2oc3c(c2c1)CNCC3 (stereo not shown) [Example 71, 6-chloro-8-(3-(tetrahydrofuran-3-yl)phenylsulfonyl)-1,2,3,4-tetrahydrobenzofuro[3,2-c]pyridine hydrochloride] | 2 | 
58 | COc1cc(S(=O)(=O)c2ccc3sccc3c2)cc2c3c(oc12)CCNC3 [Example 184] | 0.16 | 
59 | COc1cc(S(=O)(=O)c2ccc(C(C)O)cc2)cc2c3c(oc12)CCNC3 (stereo not shown) [Example 170] | 2.9 | 
60 | CN(C)C(=O)C1NCCc2oc3c(Cl)cc(S(=O)(=O)c4ccccc4)cc3c21 (stereo not shown) [Example 88, 6-chloro-N,N-dimethyl-8-(phenylsulfonyl)-1,2,3,4-tetrahydrobenzofuro[3,2-c]pyridine-1-carboxamide hydrochloride] | 252 | 
61 | COc1cc(S(=O)(=O)c2ccc3c(c2)COC3)cc2c3c(oc12)CCNC3 [Example 193] | 0.8 | 
62 | Cc1cc(S(=O)(=O)c2ccc(F)cc2)cc2c3c(oc12)CCNC3 [Example 203] | 1.5 | 
63 | CC(O)c1ccc(S(=O)(=O)c2cc(Cl)c3oc4c(c3c2)CNCC4)cc1 (stereo not shown) [Example 137] | 5.6 | 
64 | COc1cc(S(=O)(=O)c2ccc(F)cc2)cc2c3c(oc12)CCNC3 [Example 169] | 0.75 | 
